What is called melting point is the temperature of the solid-liquid transition.

Compound `CCCCn1c(=O)c(NC(=O)Nc2c(C(C)C)cccc2C(C)C)c(-c2cccc(OC)c2)c2cccnc21` returned a melting point of 178 to 181 °C.
The figure for `C[C@]1(COc2ccc(-c3nc(-c4ccc(Cl)cc4)co3)cc2)Cn2cc([N+](=O)[O-])nc2O1` is 249 to 252 °C; for `CCOC(=O)c1cnc2nn(C)cc2c1NCCCN(C)C` it is 61 to 63 °C.
`COc1cccc(CCNc2nc(N)n3nc(-c4ccco4)nc3n2)c1`: the melting point lay in the range of 172 to 174 °C.
The figure for `C(=NNc1nc(OCCc2ccccn2)nc(N2CCOCC2)n1)c1c[nH]c2ccccc12` is 158 to 161 °C; for `C=CCc1cc(Nc2ccn(-c3ccccc3)n2)cc(CC=C)c1OC(C)=O` it is 110 to 111 °C; for `CC(C)c1cn2ccccc2c1S(=O)(=O)c1ccc(OCCCBr)cc1` it is 133 °C.
On to `CC(=O)Nc1ccc(OCC(O)CN2CCC(NC(=O)c3ccccc3)CC2)cc1` (configuration not stated), for which the melting point lay within 226 to 228 °C.
In turn, `FC(F)c1cc(Cl)nc2c1c(I)nn2C1CCCCO1` (configuration not stated) came in with a melting point of 157 °C.
`CCCc1ccnc(C(=O)c2[nH]c3ccc(Cl)cc3c2CC(=O)O)c1` returned a melting point of 208 to 209 °C.
As to `CCN(CC)C(=O)c1ncccc1OC(=S)N(CC)CC`, the melting point fell in the range of 70 to 72 °C.
For `O=C=NCc1cccnc1`, the melting point was 141 to 146 °C.
For `COc1ccnc(CSc2nc3ccc(F)cc3[nH]2)c1C` the value was 128 °C; for `N#Cc1cccc(NC(=O)n2ccnc2)c1`, 174 to 176 °C; for `Nc1c(Br)cc([N+](=O)[O-])cc1C(F)(F)F`, 84 °C.
The figure for `O=S(=O)(Nc1cccnc1Nc1ccccc1)c1ccccc1` is 148 to 150 °C.
The compound `CC(=O)NCc1ccc(CO)cc1[N+](=O)[O-]` had a melting point of 133 to 135 °C.
The figure for `COc1cc2c3ccc(OC)c(OC)c3c(=O)n(Cc3ccccc3)c2cc1OC` is 183 to 184 °C; for `O=C(N[C@H]1CCCNC1=O)c1ccccc1C(F)(F)F` it is 155 to 156 °C; for `CCOC(=O)c1c(-c2ccc(OC)c(OC)c2)c2cc(Cl)ccc2n(C)c1=O` it is 104 to 106 °C.
The compound `Cc1ccc(C(=O)C2=C(O)C(=O)N(c3ccc(C)nn3)C2c2cccc(OC(C)C)c2)cc1` (configuration not stated) had a melting point of 243 to 245 °C.
Compound `CSc1ccc(N2CCON(C)C2=O)cc1C(F)(F)F` registered a melting point of 60 °C.
The compound `N#Cc1cccc(-c2ccc(O)c(-c3nc4cc(C#N)ccc4[nH]3)c2)c1` had a melting point of 348 to 350 °C.
For `NC(=O)c1ccc(OC(F)(F)C(F)(F)Br)cc1` the value was 150 to 152 °C.
For `CCCCCC[Si]1(CCCCCC)C([Si](C)(C)C)=C(c2ccccc2)C(c2ccccc2)=C1[Si](C)(C)C` the value was 81 °C; for `O=C(Nc1ccc(I)cc1)N[C@H]1C[C@H](C(=O)O)Nc2cc(Cl)cc(Cl)c21` (relative stereo), 224 to 226 °C; for `CC(C)Cn1c(=O)n(C)c(=O)c2c(Sc3ccc(N)cn3)c(Cc3cccc4ccccc34)sc21`, 208 to 209 °C.
`CCOC(=O)C1Cc2cc(-c3ccc(NC(C)=O)cc3)ccc2O1` (configuration not stated) yielded a melting point of 164 to 166 °C.
Compound `O=C(Cn1ccnc1)c1cccs1` gave a melting point of 87 to 89 °C.
The figure for `ClC1=NC2CCCc3c(Cl)ccc(c32)N1` (configuration not stated) is 190 to 192 °C; for `NC(=S)Cc1cccc(-c2nc(=O)c3ccccc3s2)n1` it is 257 °C; for `O=C(C=Cc1ccc(C(F)(F)F)cc1)N1CCC(O)CC1` it is 124 to 135 °C.
For `CCOC(=O)C1=C(C(=O)O)CC(C(=O)O)([N+](=O)[O-])C=C1` (configuration not stated) the value was 189 to 191 °C.
The compound `CC(=O)c1cc(C=O)c(O)cc1O` returned a melting point of 134 to 136 °C.
For `O=C1C(=O)c2ccccc2C2=C1SCC1(CCN(Cc3ccc(F)cc3)CC1)O2` the value was 104 to 106 °C.
`Cc1oc(-c2ccccc2)nc1COc1cccc(CSc2ccc(CC(=O)O)cc2Cl)c1` showed a melting point of 150 to 151 °C.
The figure for `COCc1c(C(=O)OC)sc2nnsc12` is 123 to 124 °C.
With `CS(=O)(=O)CC(=O)N[C@H]1CC[C@H](CCN2CCC(c3cccc4c3CCO4)CC2)CC1`, the melting point is 211 °C.
The figure for `CC(C)(C)OC(=O)N1CCN(Cc2ccccc2)C(=O)C1` is 89 to 90 °C; for `COC(=O)C(=CNc1ccc(O)cc1)C(=O)C=Cc1ccc2ccccc2c1` it is 191 to 192 °C.
For `Cc1ccc(OCc2ccccc2)c(C(=O)O)c1` the value was 98 to 100 °C; for `CCOC(=O)CC(C#N)=CC(=CN(C)C)c1ccc(Cl)cc1`, 168 to 170 °C; for `COC(=O)C(CCSC)NCC(=O)Nc1cccc2c1C(=O)c1c(NC(=O)CNC(CCSC)C(=O)OC)cccc1C2=O` (configuration not stated), 126 to 127 °C.
In the case of `CCOC(=O)c1nnc2n1-c1ccccc1C(c1ccccc1F)=NC2`, the melting point was in the range of 195 to 197 °C.
`COC(=O)c1cc(-c2nc(COc3ccc(CO)cc3OC)c(C)o2)ccc1C` returned a melting point of 145 to 146 °C.
The compound `COC(=O)c1nc2n(c1C)-c1ccc(Cl)cc1C(c1ccccc1F)=NC2` yielded a melting point of 137 to 138 °C.
The figure for `CC(=O)OCC1CC(n2c(=S)[nH]c3cc(Cl)c(Cl)cc32)C(OC(C)=O)C1OC(C)=O` (configuration not stated) is 208 to 209 °C; for `NCc1ccc(-c2ccccc2-c2nnn[nH]2)cc1` it is above 260 °C.
The figure for `CC(C)c1csc(/C=C/c2cccc(NC(=O)Cc3ccccc3C(=O)O)c2)n1` is 203 to 204 °C; for `CCCCN(CCCCO)c1ccc(C=Cc2ccc(C=CC3=C(C#N)C(=C(C#N)C#N)OC3(C)C(F)(F)F)s2)c(OCc2ccccc2)c1` (configuration not stated) it is 176 to 178 °C; for `CC(C)Nc1cccnc1N1CCN(C(=O)c2ccc(C(=O)N(CCO)CCO)cc2)CC1` it is 161 to 162 °C.
For `CCOC(=O)c1ccc(-c2ccc(C#N)cc2)cc1` the value was 114 to 115 °C; for `O=C(O)c1cc(Br)c(Cl)s1`, above 200 °C.
In turn, `CCN(CC)C(=O)c1c(C(C)(O)c2cc3cnccc3n2S(=O)(=O)c2ccccc2)ccnc1OC` (configuration not stated) registered a melting point of 236 °C.
With `CC(C)(C)OC(=O)N1CC=C(c2c(F)cc(N)cc2F)CC1`, the melting point was in the range of 134 to 135 °C.
The figure for `CC1(CO)CCN(c2ccc(C#N)c3ccccc23)CC1` is 136 to 137 °C; for `O=C1C(Cl)=C(C2CCCCC2)C(=O)c2ccccc21` it is 150 to 151 °C.
The figure for `CCC(=O)SCC(CC(=O)c1ccc(Br)cc1)C(=O)O` (configuration not stated) is 122 to 123 °C.
Compound `O=C(OCC1OC(n2cc(F)c(=O)[nH]c2=O)C(OC(=O)c2ccccc2)C1OC(=O)c1ccccc1)c1ccccc1` (configuration not stated) showed a melting point of 208 to 209 °C.
The figure for `CCCn1cc2c(C3C(=O)Nc4ccc(Cl)cc43)ncnc2n1` (configuration not stated) is 302 to 306 °C.
`CCc1ccc2c(c1)C=Cc1cc(C)ccc1C2c1cn(-c2ccnc(N3CCCC3C(=O)O)n2)c(=O)[nH]c1=S` (configuration not stated) registered a melting point of 175 °C.
Turning to `CN(CCOc1ccc(C=C2SC(=O)NC2=O)cc1)c1nc2ccccc2s1`, the melting point stood at 219 °C.
Turning to `CCC(O)(c1ccc(F)cc1)c1ccc(OCc2cccc(C)n2)cc1` (configuration not stated), the melting point lay within 103 to 104 °C.
The figure for `COc1ccc2c(c1)Oc1ccccc1C2` is 72 to 74 °C; for `CSc1ncc(N(C)C(=O)C(C)(C)c2cc(C(F)(F)F)cc(C(F)(F)F)c2)c(-c2ccccc2C)n1` it is 124 to 125 °C; for `COc1ccccc1NC(=O)Nc1cccc(-n2c(=O)c(CCC(=O)ON3C(=O)CCC3=O)nc3cccnc32)c1` it is 235 to 237 °C.
The figure for `CCCCCCc1cc2c(cc1C(=O)Oc1ccc(C(=O)OCc3ccccc3)cn1)C(C)(C)CCC2(C)C` is 94 to 95 °C.
With `Cc1cc(=O)oc2nc(N(C)C)ccc12`, the melting point lay within 157 to 160 °C.
`CCC(=O)NCc1ccc(CN2CCN(c3ncccn3)CC2)cc1` returned a melting point of 103 to 105 °C.
Compound `ICCC12CC3CC(CC(C3)C1)C2` displayed a melting point of 93 to 94 °C.
For `CCOC(=O)Nc1nc(-c2ccccc2)c(-c2nc3ccccc3c(=O)n2-c2ccccc2Cl)s1` the value was 236 to 238 °C; for `NCCCC[C@H](O)C(=O)O`, 197 to 199 °C; for `CCOC(=O)C(=O)C(NC(=O)c1ccccc1)c1ccccc1` (configuration not stated), 80 to 83 °C.
Turning to `OC(CN1CCNCC1)C(O)(c1ccccc1)C1CCCC1` (configuration not stated), the melting point came out at 50 °C.
For `O=C1NC(=O)C2(c3cc(Oc4ccc([N+](=O)[O-])cc4)c(Cl)cc3F)CCCCC12` (configuration not stated) the value was 126 °C; for `Nc1cc(F)c(C2CCSCC2)c(F)c1`, 118 to 119 °C.
For `O=C(Nc1cccc(S(=O)(=O)NCc2ccccc2)c1)c1cnn2c(C(F)F)cc(-c3ccc(C(F)(F)F)cc3)nc12` the value was 230 °C.
With `CCOCc1nc2c(N)nc3cccnc3c2n1CCCCCC(=O)N1CCOCC1`, the melting point fell in the range of 168 to 170 °C.
`CC12CCC(C1)C1(C)Oc3ccc(C(=O)/C=C/c4ccc(C(=O)O)cc4)cc3C21C` (configuration not stated) had a melting point of 225 to 227 °C.
For `O=C(O)c1ccc(OCCCc2ccc(OCCCCOc3ccccc3)cc2)c(C(=O)N2CCC(C(=O)O)CC2)c1` the value was 142 to 143 °C; for `Cc1c(Cl)c(Oc2ncc(C(F)(F)F)cc2Cl)nn1C(=O)NC1CCCCC1`, 94 to 96 °C; for `Cc1cnc2c(NC(=O)c3c(Cl)cccc3Cl)cccc2c1Cl`, 216 to 227 °C.
Take `CN1C(=O)C(=O)N(Cc2ccccc2)CC1(CCOC1CCCCO1)c1ccc(Cl)c(Cl)c1` (configuration not stated): the melting point was 178 °C.
`CCCCCCCCCCCCC1=C(OCC)C(=O)c2ccccc2C1=O` yielded a melting point of 36 to 38 °C.
For `CCCc1c(C=O)ncn1S(=O)(=O)N(C)C` the value was 57 to 58 °C.
`CCOC(=O)Cc1nc(Cl)c(Cl)s1`: the melting point was found to be 63 °C.
The figure for `NC(=O)Cc1cc(Oc2ccc3c(ccn3C(=O)Nc3ccc(CN4CCOCC4)c(C(F)(F)F)c3)c2)ncn1` is 219 to 221 °C.
